Measured values: the supplement of paper PMC11451515

How the values were obtained:
Conditions in all cases: 48 h
P12-Ichikawa [1] = assay: AUC of viability dose-response curve (% viability x log10 dose units); higher = less sensitive
Method in brief: (§1)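 Library compounds in DMSO were applied for 48 h at 37°C at 11 threefold doses (47 μM to 0.79 nM) to medium-adapted leukemia cells in 1536-well plates holding 500 or 1000 cells/well. Luminescence from CellTiter-Glo One was normalised plate by plate against DMSO and cell-free wells. Area under the curve came from trapezoidal integration of a log-logistic fit, after scaling curves that rose above full viability and discarding those that failed quality control. The fit had four parameters and used log10 doses.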

SEM cells [2] = assay: as above
Method in brief: as §1

NOMO1 [3] = assay: as above
Method in brief: as §1

SEM cells [4] = assay: cell viability relative to DMSO control; higher = less cytotoxic
Method in brief: (§2)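 Cells were incubated for 48 h at 37°C before CellTiter-Glo One luminescence was read. The cells were NOMO1 or SEM (500 cells/well) or P12-Ichikawa (1000 cells/well) leukemia cells, adapted for at least four passages in each medium and seeded in 1536-well plates (5 μl). Dosing used library compounds in DMSO applied by pin over 11 threefold points, 47 μM to 0.79 nM. Viability is the per-plate percentage of DMSO wells, with cell-free wells as background.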

NOMO1 [5] = assay: as above
Method in brief: as §2

P12-Ichikawa [6] = assay: as above
Method in brief: as §2

CC(C)c1onc(-c2c(Cl)cccc2Cl)c1COc1ccc(/C=C/c2cccc(C(=O)O)c2)c(Cl)c1
AUC of viability dose-response curve
Conditions	NOMO1 [3]	P12-Ichikawa [1]	SEM cells [2]
HPLM + 10% dialyzed FBS	454	450	466
RPMI 5 mM glucose + 10% FBS	447	445	465
RPMI 5 mM glucose + 10% dialyzed FBS	466	452	443

cell viability [%]
Conditions	HPLM + 10% dialyzed FBS	RPMI 5 mM glucose + 10% FBS	RPMI 5 mM glucose + 10% dialyzed FBS
NOMO1 [5], 0.000781 µM	–	–	128
NOMO1 [5], 0.00234 µM	–	–	124
NOMO1 [5], 0.00702 µM	–	–	124
NOMO1 [5], 0.0211 µM	–	–	139
NOMO1 [5], 0.0632 µM	–	–	114
NOMO1 [5], 0.19 µM	–	–	133
NOMO1 [5], 0.569 µM	–	–	129
NOMO1 [5], 1.71 µM	–	–	132
NOMO1 [5], 5.12 µM	–	–	128
NOMO1 [5], 15.4 µM	–	–	109
NOMO1 [5], 46.1 µM	–	–	107
SEM cells [4], 0.000781 µM	122	117	119
SEM cells [4], 0.00234 µM	130	119	134
SEM cells [4], 0.00702 µM	114	109	120
SEM cells [4], 0.0211 µM	120	128	146
SEM cells [4], 0.0632 µM	121	127	132
SEM cells [4], 0.19 µM	129	120	128
SEM cells [4], 0.569 µM	115	105	118
SEM cells [4], 1.71 µM	116	120	117
SEM cells [4], 5.12 µM	125	115	115
SEM cells [4], 15.4 µM	108	106	104
SEM cells [4], 46.1 µM	91.5	85.7	95.1

COc1cc2c(cc1OC)[C@@H]1Cc3ccc(OC)c(OC)c3CN1CC2
AUC of viability dose-response curve
Conditions	NOMO1 [3]	P12-Ichikawa [1]	SEM cells [2]
HPLM + 10% dialyzed FBS	452	467	473
RPMI 5 mM glucose + 10% FBS	458	444	449
RPMI 5 mM glucose + 10% dialyzed FBS	464	461	477

cell viability [%]
Conditions	NOMO1 [5]	P12-Ichikawa [6]	SEM cells [4]
HPLM + 10% dialyzed FBS, 0.000781 µM	120	110	94.1
HPLM + 10% dialyzed FBS, 0.00234 µM	129	114	123
HPLM + 10% dialyzed FBS, 0.00702 µM	115	114	118
HPLM + 10% dialyzed FBS, 0.0211 µM	105	113	123
HPLM + 10% dialyzed FBS, 0.0632 µM	118	118	114
HPLM + 10% dialyzed FBS, 0.19 µM	110	117	119
HPLM + 10% dialyzed FBS, 0.569 µM	112	112	121
HPLM + 10% dialyzed FBS, 1.71 µM	117	106	122
HPLM + 10% dialyzed FBS, 5.12 µM	114	112	117
HPLM + 10% dialyzed FBS, 15.4 µM	99.4	99.1	109
HPLM + 10% dialyzed FBS, 46.1 µM	31.2	94.5	109
RPMI 5 mM glucose + 10% FBS, 0.000781 µM	98.1	–	110
RPMI 5 mM glucose + 10% FBS, 0.00234 µM	101	–	108
RPMI 5 mM glucose + 10% FBS, 0.00702 µM	94.8	–	103
RPMI 5 mM glucose + 10% FBS, 0.0211 µM	97.1	–	111
RPMI 5 mM glucose + 10% FBS, 0.0632 µM	106	–	104
RPMI 5 mM glucose + 10% FBS, 0.19 µM	104	–	109
RPMI 5 mM glucose + 10% FBS, 0.569 µM	97.6	–	99.3
RPMI 5 mM glucose + 10% FBS, 1.71 µM	101	–	93.9
RPMI 5 mM glucose + 10% FBS, 5.12 µM	102	–	99.4
RPMI 5 mM glucose + 10% FBS, 15.4 µM	92.7	–	102
RPMI 5 mM glucose + 10% FBS, 46.1 µM	34.3	–	78.4
RPMI 5 mM glucose + 10% dialyzed FBS, 0.000781 µM	112	111	97.9
RPMI 5 mM glucose + 10% dialyzed FBS, 0.00234 µM	114	117	108
RPMI 5 mM glucose + 10% dialyzed FBS, 0.00702 µM	116	119	113
RPMI 5 mM glucose + 10% dialyzed FBS, 0.0211 µM	107	109	112
RPMI 5 mM glucose + 10% dialyzed FBS, 0.0632 µM	96.5	110	129
RPMI 5 mM glucose + 10% dialyzed FBS, 0.19 µM	109	110	124
RPMI 5 mM glucose + 10% dialyzed FBS, 0.569 µM	95.6	124	108
RPMI 5 mM glucose + 10% dialyzed FBS, 1.71 µM	97.8	117	133
RPMI 5 mM glucose + 10% dialyzed FBS, 5.12 µM	106	109	122
RPMI 5 mM glucose + 10% dialyzed FBS, 15.4 µM	103	97.2	120
RPMI 5 mM glucose + 10% dialyzed FBS, 46.1 µM	56	80.3	82.2

CCOC(=O)c1c(C)n(C)c2ccc(O)cc12
AUC of viability dose-response curve
Conditions	NOMO1 [3]	P12-Ichikawa [1]	SEM cells [2]
HPLM + 10% dialyzed FBS	468	456	447
RPMI 5 mM glucose + 10% FBS	455	436	462
RPMI 5 mM glucose + 10% dialyzed FBS	461	443	463

cell viability [%]
Conditions	NOMO1 [5]	P12-Ichikawa [6]	SEM cells [4]
HPLM + 10% dialyzed FBS, 0.000781 µM	–	122	99.8
HPLM + 10% dialyzed FBS, 0.00234 µM	–	124	95.8
HPLM + 10% dialyzed FBS, 0.00702 µM	–	124	97.6
HPLM + 10% dialyzed FBS, 0.0211 µM	–	123	96
HPLM + 10% dialyzed FBS, 0.0632 µM	–	128	95.6
HPLM + 10% dialyzed FBS, 0.19 µM	–	122	105
HPLM + 10% dialyzed FBS, 0.569 µM	–	127	97
HPLM + 10% dialyzed FBS, 1.71 µM	–	123	103
HPLM + 10% dialyzed FBS, 5.12 µM	–	107	107
HPLM + 10% dialyzed FBS, 15.4 µM	–	109	113
HPLM + 10% dialyzed FBS, 46.1 µM	–	90.3	104
RPMI 5 mM glucose + 10% FBS, 0.000781 µM	–	–	115
RPMI 5 mM glucose + 10% FBS, 0.00234 µM	–	–	121
RPMI 5 mM glucose + 10% FBS, 0.00702 µM	–	–	107
RPMI 5 mM glucose + 10% FBS, 0.0211 µM	–	–	110
RPMI 5 mM glucose + 10% FBS, 0.0632 µM	–	–	101
RPMI 5 mM glucose + 10% FBS, 0.19 µM	–	–	119
RPMI 5 mM glucose + 10% FBS, 0.569 µM	–	–	108
RPMI 5 mM glucose + 10% FBS, 1.71 µM	–	–	120
RPMI 5 mM glucose + 10% FBS, 5.12 µM	–	–	114
RPMI 5 mM glucose + 10% FBS, 15.4 µM	–	–	124
RPMI 5 mM glucose + 10% FBS, 46.1 µM	–	–	111
RPMI 5 mM glucose + 10% dialyzed FBS, 0.000781 µM	115	–	115
RPMI 5 mM glucose + 10% dialyzed FBS, 0.00234 µM	120	–	117
RPMI 5 mM glucose + 10% dialyzed FBS, 0.00702 µM	115	–	106
RPMI 5 mM glucose + 10% dialyzed FBS, 0.0211 µM	113	–	118
RPMI 5 mM glucose + 10% dialyzed FBS, 0.0632 µM	125	–	113
RPMI 5 mM glucose + 10% dialyzed FBS, 0.19 µM	119	–	95.5
RPMI 5 mM glucose + 10% dialyzed FBS, 0.569 µM	124	–	106
RPMI 5 mM glucose + 10% dialyzed FBS, 1.71 µM	120	–	112
RPMI 5 mM glucose + 10% dialyzed FBS, 5.12 µM	108	–	113
RPMI 5 mM glucose + 10% dialyzed FBS, 15.4 µM	101	–	117
RPMI 5 mM glucose + 10% dialyzed FBS, 46.1 µM	96.6	–	116

O=C(/C=C/c1ccc(/C=C/C(=O)Nc2ccc(C3=NCCN3)cc2)cc1)Nc1ccc(C2=NCCN2)cc1
AUC of viability dose-response curve
Conditions	NOMO1 [3]	P12-Ichikawa [1]	SEM cells [2]
HPLM + 10% dialyzed FBS	456	467	460
RPMI 5 mM glucose + 10% FBS	439	467	448
RPMI 5 mM glucose + 10% dialyzed FBS	464	473	459

cell viability [%]
Conditions	NOMO1 [5]	P12-Ichikawa [6]	SEM cells [4]
HPLM + 10% dialyzed FBS, 0.000781 µM	103	98.7	96.5
HPLM + 10% dialyzed FBS, 0.00234 µM	108	102	103
HPLM + 10% dialyzed FBS, 0.00702 µM	111	111	101
HPLM + 10% dialyzed FBS, 0.0211 µM	108	115	115
HPLM + 10% dialyzed FBS, 0.0632 µM	111	117	129
HPLM + 10% dialyzed FBS, 0.19 µM	116	108	118
HPLM + 10% dialyzed FBS, 0.569 µM	117	117	115
HPLM + 10% dialyzed FBS, 1.71 µM	123	115	117
HPLM + 10% dialyzed FBS, 5.12 µM	121	119	103
HPLM + 10% dialyzed FBS, 15.4 µM	111	115	103
HPLM + 10% dialyzed FBS, 46.1 µM	122	108	115
RPMI 5 mM glucose + 10% FBS, 0.000781 µM	104	101	93.6
RPMI 5 mM glucose + 10% FBS, 0.00234 µM	98.8	104	104
RPMI 5 mM glucose + 10% FBS, 0.00702 µM	115	111	95.5
RPMI 5 mM glucose + 10% FBS, 0.0211 µM	117	111	102
RPMI 5 mM glucose + 10% FBS, 0.0632 µM	123	109	109
RPMI 5 mM glucose + 10% FBS, 0.19 µM	106	119	99.2
RPMI 5 mM glucose + 10% FBS, 0.569 µM	106	109	110
RPMI 5 mM glucose + 10% FBS, 1.71 µM	115	106	114
RPMI 5 mM glucose + 10% FBS, 5.12 µM	117	112	93.5
RPMI 5 mM glucose + 10% FBS, 15.4 µM	125	107	72.8
RPMI 5 mM glucose + 10% FBS, 46.1 µM	131	110	52.3
RPMI 5 mM glucose + 10% dialyzed FBS, 0.000781 µM	88.2	91.3	104
RPMI 5 mM glucose + 10% dialyzed FBS, 0.00234 µM	107	109	120
RPMI 5 mM glucose + 10% dialyzed FBS, 0.00702 µM	95.5	107	115
RPMI 5 mM glucose + 10% dialyzed FBS, 0.0211 µM	106	96.7	114
RPMI 5 mM glucose + 10% dialyzed FBS, 0.0632 µM	117	104	109
RPMI 5 mM glucose + 10% dialyzed FBS, 0.19 µM	117	115	113
RPMI 5 mM glucose + 10% dialyzed FBS, 0.569 µM	113	105	111
RPMI 5 mM glucose + 10% dialyzed FBS, 1.71 µM	112	112	120
RPMI 5 mM glucose + 10% dialyzed FBS, 5.12 µM	108	109	108
RPMI 5 mM glucose + 10% dialyzed FBS, 15.4 µM	112	112	97.7
RPMI 5 mM glucose + 10% dialyzed FBS, 46.1 µM	102	100	64.6
